How the values were obtained:
[1] = saturation concentration of acetylsalicylic acid in the solvent mixture; assay type: physicochemical; conditions: solvent mixture: propylene glycol about 10% by volume, glycerine about 2 percent by volume, balance isopropyl alcohol/water solution with isopropyl alcohol about 70% by volume
[2] = solubility of acetylsalicylic acid in water; assay type: physicochemical
Source text: In preparing the composition, it can be helpful to gently warm while stirring the solvent mixture to assist the acetylsalicylic acid in completely dissolving in the solvent mixture. It has been observed that the typical consumer tends to prefer a product that is homogeneous in appearance and without any visible precipitate. […] Thus, aloe vera, for example, while it is soothing to the skin, tends to quickly hydrolyze acetylsalicylic acid. The hydrolysis of the acetylsalicylic acid would substantially and undesirably shorten the shelf life of the product.

## CC(=O)Oc1ccccc1C(=O)O [acetylsalicylic acid]
[1]
  saturation concentration of the acetylsalicylic acid in this solvent mixture: about 18 % by weight per unit volume
[2]
  solubility in water or water based substances: virtually insoluble
